Results: PMC13192270, “RhlR quorum-sensing receptor ligand sensitivity regulates the differential expression of phenazine genes in Pseudomonas aeruginosa” (Journal of Bacteriology, 2026)

Tests used:
pyocyanin production = details: cited from earlier work
RhlR A44W = molecular target: T1, RhlR A44W (Pseudomonas aeruginosa, UniProt P54292, A44W); experiment: E. coli prhlA-luxCDABE luciferase reporter assay; format: cell-based; details: even at the highest dose of C4HSL tested
T1 construct: expressed in transfected cells; host or cells: E. coli carrying pBAD-A-rhlR mutant, pCS26-prhlA-luxCDABE and pACYC-pqsE or empty pACYC
Text: Previous analysis of the RhlR LBP focused on highly conserved residues that were known from other AHL-binding proteins to be important contacts for AHL molecules, particularly the lactone head group. We performed conservation analyses on 300 LuxR-type receptors to determine variable and moderately conserved residues in the LBP (Fig. 1B) and, in conjunction with our previously determined experimental structure of WT RhlR bound to the synthetic agonist mBTL, used for docking C4- and C6HSL. Based on our docking simulations, C4- and C6HSL occupy a similar position in the LBP as mBTL, a highly efficacious activator of RhlR (Fig. 1C; Fig. S1). We targeted residues A44, G46, T58, L69, Y72, D81, I84, W96, and W108 (Fig. 1B and C). These residues were selected because of their proximity to the acyl tail of C4HSL, as well as the differences in conservation that are observed at these sites. […] Transcription was monitored by light production via the expression of the luxCDABE operon controlled by the RhlR-dependent promoter of rhlA. […]
The range of responses to substitutions is best highlighted by changes at residue T58 (Fig. 2A). […] Indeed, of the LuxR-AHL experimentally determined structures, this region of the LBP is typically occupied by the acyl tail of long-chain AHLs or a hydrophobic residue ([5], [27], [29], [30], [42], [43]), a point we return to in the discussion. […]

CCCC(=O)N[C@H]1CCOC1=O [C4HSL, N-butyryl-L-homoserine lactone]
C4HSL concentration above which pyocyanin production is lost (pyocyanin production): > 5 µM | C4HSL concentration below which pyocyanin production is lost (pyocyanin production): < 500 nM | activation by C4HSL in the reporter system (RhlR A44W): not activated
